Results: PMC10795196, “Self-Assembled Materials Based on Fully Aromatic Peptides: The Impact of Tryptophan, Tyrosine, and Dopa Residues” (Langmuir, 2024)
Converted amounts (≈) assume the structure as drawn. Non-standard residues stand in square brackets, D forms with d. Residues, ends and D or L forms follow the SMILES beside them. No end group written: not given here. Dopa = N[C@@H](Cc1ccc(O)c(O)c1)C(=O)O; AEEA = NCCOCCOCC(=O)O

test: Water solubility determined spectroscopically (absorbance at 280 nm); type: physicochemical; details: direct dissolution of powder in bidistilled water, centrifuged solutions, UV absorbance at 280 nm with calculated ε
Method: Peptide solutions were prepared by direct dissolution of pure powders in bidistilled water. The analytical concentration of solutions was spectroscopically determined by absorbance on a UV–vis Thermo Fisher Scientific Inc. (Wilmington, Delaware, USA) Nanodrop 2000c spectrophotometer equipped with a 1.0 cm quartz cuvette (Hellma) using the molar absorptivity (ε) at 280 nm reported in Table 1. For each peptide, the ε was calculated using the formula ε(280)= [x·5500 + y·1215 + k·2630] [L·cm^–1·mol^–1], where x, y, and k were the numbers of W, Y, and Dopa residues, respectively. […] Hydrogel formation was triggered using the “solvent switch” method, which consists of the addition of water to a peptide stock solution (100 mg/mL in DMSO). The peptide concentration after water addition was 1.0 wt % (10.0 mg/mL).
To deeply investigate the molecular determinant that can positively or negatively affect the aggregation process, herein, we evaluated the impact generated by replacement of the Phe residue with the Trp (W) one. Trp was selected to assess the effect of a more sterically hindered residue containing the heteroaromatic indole group. On the other side, Tyr residues were replaced by Dopa, characterized by the catechol group in place of the phenol one. Using this design, two novel peptides [(WY)3 and (W-Dopa)3] and their N-PEGylated analogues [PEG8-(WY)3 and PEG8-(W-Dopa)3] were designed (Figure 1). The novel sequences were synthesized using a solid-phase approach, according to the Fmoc/tBu protocols on Rink amide MBHA resin. This support allows for obtaining amidation of the C-terminus. Due to the major steric hindrance of the Trp residue, the synthesis of these primary sequences was more difficult than the previously reported ones and required the employment of a DMF/NMP mixture as solvent. After purification, peptides were lyophilized and their identity was assessed by LC-MS (Figures S1–S4 and Table 1). The estimation of the peptide solubility was spectroscopically determined by recording the absorbance spectra (Figure S5) on the centrifuged peptide solutions. […] As expected, peptides derivatized with the PEG moiety are more soluble than their corresponding unPEGylated versions, thus confirming PEGylation as a helpful strategy to improve intrinsic water solubility of all-aromatic sequences.

Row | solubility thermodynamic [µg/mL] | Compound
1 | 7610 (≈ 6.84 mM) | NC(=O)[C@H](Cc1ccc(O)c(O)c1)NC(=O)[C@H](Cc1c[nH]c2ccccc12)NC(=O)[C@H](Cc1ccc(O)c(O)c1)NC(=O)[C@H](Cc1c[nH]c2ccccc12)NC(=O)[C@H](Cc1ccc(O)c(O)c1)NC(=O)[C@@H](N)Cc1c[nH]c2ccccc12 [(W-Dopa)3] (H-W[Dopa]W[Dopa]W[Dopa]-NH2)
2 | 15000 (≈ 8.86 mM) | NCCOCCOCC(=O)NCCOCCOCC(=O)NCCOCCOCC(=O)NCCOCCOCC(=O)N[C@@H](Cc1c[nH]c2ccccc12)C(=O)N[C@@H](Cc1ccc(O)c(O)c1)C(=O)N[C@@H](Cc1c[nH]c2ccccc12)C(=O)N[C@@H](Cc1ccc(O)c(O)c1)C(=O)N[C@@H](Cc1c[nH]c2ccccc12)C(=O)N[C@@H](Cc1ccc(O)c(O)c1)C(N)=O [PEG8-(W-Dopa)3] (H-[AEEA][AEEA][AEEA][AEEA]W[Dopa]W[Dopa]W[Dopa]-NH2)
3 | 3770 (≈ 2.29 mM) | NCCOCCOCC(=O)NCCOCCOCC(=O)NCCOCCOCC(=O)NCCOCCOCC(=O)N[C@@H](Cc1c[nH]c2ccccc12)C(=O)N[C@@H](Cc1ccc(O)cc1)C(=O)N[C@@H](Cc1c[nH]c2ccccc12)C(=O)N[C@@H](Cc1ccc(O)cc1)C(=O)N[C@@H](Cc1c[nH]c2ccccc12)C(=O)N[C@@H](Cc1ccc(O)cc1)C(N)=O [PEG8-(WY)3] (H-[AEEA][AEEA][AEEA][AEEA]WYWYWY-NH2)
4 | 1150 | WYWYWY-NH2 [(WY)3]
